Test results published in ChEMBL document CHEMBL3885881, “DrugMatrix”.

Organism: Rattus norvegicus
Assay: DrugMatrix - Regimen: Daily Repeat
Format: toxicity, organism-based, Sprague-Dawley
Parameters: regimen Daily Repeat, gender Male, age 6-8 weeks
Details: in vivo, po, route oral GAVAGE, […]; for ABSOLUTE BASOPHIL / ABSOLUTE EOSINOPHIL / ABSOLUTE LYMPHOCYTE / ABSOLUTE MONOCYTE / ABSOLUTE SEGMENTED NEUTROPHIL / BASOPHIL / EOSINOPHIL / ERYTHROCYTE COUNT / HEMATOCRIT / HEMOGLOBIN / LEUKOCYTE COUNT / LYMPHOCYTE / MEAN CORPUSCULAR HEMOGLOBIN / MEAN CORPUSCULAR HEMOGLOBIN CONCENTRATION / MEAN CORPUSCULAR VOLUME / MONOCYTE / NEUTROPHIL / NUCLEATED RED BLOOD CELLS / PLATELET COUNT: tissue Blood; for ALANINE AMINOTRANSFERASE / ALBUMIN / ALKALINE PHOSPHATASE / ASPARTATE AMINOTRANSFERASE / BLOOD UREA NITROGEN / CARBON DIOXIDE / CHLORIDE / CHOLESTEROL / CREATINE PHOSPHOKINASE / CREATININE / GLUCOSE / LACTATE DEHYDROGENASE / LIPASE / PHOSPHORUS / POTASSIUM / SODIUM / TOTAL BILIRUBIN / TOTAL PROTEIN / URIC ACID: tissue Plasma
[1] = 40 mg/kg, 72 h, dose level Low, time 3 day
[2] = 40 mg/kg, 120 h, dose level Low, time 5 day
[3] = 450 mg/kg, 72 h, dose level High, time 3 day
[4] = 450 mg/kg, 120 h, dose level High, time 5 day

Structure (SMILES): CC(c1cc2ccccc2s1)N(O)C(N)=O (configuration not stated) [ZILEUTON]
- ABSOLUTE BASOPHIL [1]: 0 CELLS/uL
- ABSOLUTE EOSINOPHIL [1]: 103.33 CELLS/uL
- ABSOLUTE LYMPHOCYTE [1]: 13682 CELLS/uL
- ABSOLUTE MONOCYTE [1]: 0 CELLS/uL
- ABSOLUTE SEGMENTED NEUTROPHIL [1]: 1348 CELLS/uL
- BASOPHIL [1]: 0%
- EOSINOPHIL [1]: 0.67%
- ERYTHROCYTE COUNT [1]: 5.58 x10E6/uL
- HEMATOCRIT [1]: 34.97%
- HEMOGLOBIN [1]: 13.77 G/DL
- LEUKOCYTE COUNT [1]: 15.13 x10E3/uL
- LYMPHOCYTE [1]: 90.33%
- MEAN CORPUSCULAR HEMOGLOBIN [1]: 24.67 pg
- MEAN CORPUSCULAR HEMOGLOBIN CONCENTRATION [1]: 39.37 G/DL
- MEAN CORPUSCULAR VOLUME [1]: 62.67 fL
- MONOCYTE [1]: 0%
- NEUTROPHIL [1]: 9%
- NUCLEATED RED BLOOD CELLS [1]: 0 /100WBC
- PLATELET COUNT [1]: 1217.67 x10E3/uL
- ALANINE AMINOTRANSFERASE [1]: 75.33 u/L
- ALBUMIN [1]: 3.93 G/DL
- ALKALINE PHOSPHATASE [1]: 442 u/L
- ASPARTATE AMINOTRANSFERASE [1]: 87.67 u/L
- BLOOD UREA NITROGEN [1]: 14 mg/dL
- CARBON DIOXIDE [1]: 32.33 mmol/L
- CHLORIDE [1]: 100 MEQ/L
- CHOLESTEROL [1]: 66.67 mg/dL
- CREATINE PHOSPHOKINASE [1]: 201.33 u/L
- CREATININE [1]: 0.14 mg/dL
- GLUCOSE [1]: 160 mg/dL
- LACTATE DEHYDROGENASE [1]: 148.33 u/L
- LIPASE [1]: 10.67 u/L
- PHOSPHORUS [1]: 10.8 mg/dL
- POTASSIUM [1]: 6.7 MEQ/L
- SODIUM [1]: 140.3 MEQ/L
- TOTAL BILIRUBIN [1]: 0.17 mg/dL
- TOTAL PROTEIN [1]: 5.37 G/DL
- URIC ACID [1]: 1.53 mg/dL
- ABSOLUTE BASOPHIL [2]: 0 CELLS/uL
- ABSOLUTE EOSINOPHIL [2]: 0 CELLS/uL
- ABSOLUTE LYMPHOCYTE [2]: 9935.67 CELLS/uL
- ABSOLUTE MONOCYTE [2]: 247 CELLS/uL
- ABSOLUTE SEGMENTED NEUTROPHIL [2]: 1084 CELLS/uL
- BASOPHIL [2]: 0%
- EOSINOPHIL [2]: 0%
- ERYTHROCYTE COUNT [2]: 5.6 x10E6/uL
- HEMATOCRIT [2]: 34.1%
- HEMOGLOBIN [2]: 13.83 G/DL
- LEUKOCYTE COUNT [2]: 11.27 x10E3/uL
- LYMPHOCYTE [2]: 89%
- MEAN CORPUSCULAR HEMOGLOBIN [2]: 24.77 pg
- MEAN CORPUSCULAR HEMOGLOBIN CONCENTRATION [2]: 40.57 G/DL
- MEAN CORPUSCULAR VOLUME [2]: 60.97 fL
- MONOCYTE [2]: 2%
- NEUTROPHIL [2]: 9%
- NUCLEATED RED BLOOD CELLS [2]: 0 /100WBC
- PLATELET COUNT [2]: 1094 x10E3/uL
- ALANINE AMINOTRANSFERASE [2]: 62 u/L
- ALBUMIN [2]: 4.23 G/DL
- ALKALINE PHOSPHATASE [2]: 479.33 u/L
- ASPARTATE AMINOTRANSFERASE [2]: 79.33 u/L
- BLOOD UREA NITROGEN [2]: 13.67 mg/dL
- CARBON DIOXIDE [2]: 32 mmol/L
- CHLORIDE [2]: 100.67 MEQ/L
- CHOLESTEROL [2]: 62 mg/dL
- CREATINE PHOSPHOKINASE [2]: 165.33 u/L
- CREATININE [2]: 0.2 mg/dL
- GLUCOSE [2]: 145 mg/dL
- LACTATE DEHYDROGENASE [2]: 111.67 u/L
- LIPASE [2]: 11 u/L
- PHOSPHORUS [2]: 10.6 mg/dL
- POTASSIUM [2]: 6.47 MEQ/L
- SODIUM [2]: 141.17 MEQ/L
- TOTAL BILIRUBIN [2]: 0.17 mg/dL
- TOTAL PROTEIN [2]: 5.67 G/DL
- URIC ACID [2]: 1.47 mg/dL
- ABSOLUTE BASOPHIL [3]: 0 CELLS/uL
- ABSOLUTE EOSINOPHIL [3]: 0 CELLS/uL
- ABSOLUTE LYMPHOCYTE [3]: 15031 CELLS/uL
- ABSOLUTE MONOCYTE [3]: 0 CELLS/uL
- ABSOLUTE SEGMENTED NEUTROPHIL [3]: 1769 CELLS/uL
- BASOPHIL [3]: 0%
- EOSINOPHIL [3]: 0%
- ERYTHROCYTE COUNT [3]: 5.39 x10E6/uL
- HEMATOCRIT [3]: 32.93%
- HEMOGLOBIN [3]: 13.6 G/DL
- LEUKOCYTE COUNT [3]: 16.8 x10E3/uL
- LYMPHOCYTE [3]: 89.33%
- MEAN CORPUSCULAR HEMOGLOBIN [3]: 25.27 pg
- MEAN CORPUSCULAR HEMOGLOBIN CONCENTRATION [3]: 41.33 G/DL
- MEAN CORPUSCULAR VOLUME [3]: 61.1 fL
- MONOCYTE [3]: 0%
- NEUTROPHIL [3]: 10.67%
- NUCLEATED RED BLOOD CELLS [3]: 0.33 /100WBC
- PLATELET COUNT [3]: 1249 x10E3/uL
- ALANINE AMINOTRANSFERASE [3]: 87.67 u/L
- ALBUMIN [3]: 3.67 G/DL
- ALKALINE PHOSPHATASE [3]: 458 u/L
- ASPARTATE AMINOTRANSFERASE [3]: 128 u/L
- BLOOD UREA NITROGEN [3]: 17.67 mg/dL
- CARBON DIOXIDE [3]: 25.33 mmol/L
- CHLORIDE [3]: 103.67 MEQ/L
- CHOLESTEROL [3]: 65.67 mg/dL
- CREATINE PHOSPHOKINASE [3]: 774.33 u/L
- CREATININE [3]: 0.18 mg/dL
- GLUCOSE [3]: 148.33 mg/dL
- LACTATE DEHYDROGENASE [3]: 301.67 u/L
- LIPASE [3]: 10.67 u/L
- PHOSPHORUS [3]: 12.57 mg/dL
- POTASSIUM [3]: 5.93 MEQ/L
- SODIUM [3]: 142.9 MEQ/L
- TOTAL BILIRUBIN [3]: 0.2 mg/dL
- TOTAL PROTEIN [3]: 5.13 G/DL
- URIC ACID [3]: 1.47 mg/dL
- ABSOLUTE BASOPHIL [4]: 0 CELLS/uL
- ABSOLUTE EOSINOPHIL [4]: 45 CELLS/uL
- ABSOLUTE LYMPHOCYTE [4]: 16299.33 CELLS/uL
- ABSOLUTE MONOCYTE [4]: 207.67 CELLS/uL
- ABSOLUTE SEGMENTED NEUTROPHIL [4]: 1114.67 CELLS/uL
- BASOPHIL [4]: 0%
- EOSINOPHIL [4]: 0.33%
- ERYTHROCYTE COUNT [4]: 5.62 x10E6/uL
- HEMATOCRIT [4]: 34.17%
- HEMOGLOBIN [4]: 13.87 G/DL
- LEUKOCYTE COUNT [4]: 17.67 x10E3/uL
- LYMPHOCYTE [4]: 92.33%
- MEAN CORPUSCULAR HEMOGLOBIN [4]: 24.73 pg
- MEAN CORPUSCULAR HEMOGLOBIN CONCENTRATION [4]: 40.6 G/DL
- MEAN CORPUSCULAR VOLUME [4]: 60.87 fL
- MONOCYTE [4]: 1%
- NEUTROPHIL [4]: 6.33%
- NUCLEATED RED BLOOD CELLS [4]: 0 /100WBC
- PLATELET COUNT [4]: 1205.33 x10E3/uL
- ALANINE AMINOTRANSFERASE [4]: 64.33 u/L
- ALBUMIN [4]: 4.1 G/DL
- ALKALINE PHOSPHATASE [4]: 388 u/L
- ASPARTATE AMINOTRANSFERASE [4]: 79.33 u/L
- BLOOD UREA NITROGEN [4]: 16 mg/dL
- CARBON DIOXIDE [4]: 37.67 mmol/L
- CHLORIDE [4]: 99.33 MEQ/L
- CHOLESTEROL [4]: 79 mg/dL
- CREATINE PHOSPHOKINASE [4]: 125 u/L
- CREATININE [4]: 0.15 mg/dL
- GLUCOSE [4]: 142 mg/dL
- LACTATE DEHYDROGENASE [4]: 75 u/L
- LIPASE [4]: 10.33 u/L
- PHOSPHORUS [4]: 10.97 mg/dL
- POTASSIUM [4]: 6.65 MEQ/L
- SODIUM [4]: 142.6 MEQ/L
- TOTAL BILIRUBIN [4]: 0.2 mg/dL
- TOTAL PROTEIN [4]: 5.8 G/DL
- URIC ACID [4]: 1.7 mg/dL
